pIC50: −log10 of the molar value. Structures can show the parent of a compound that is named as a salt. Bounds are passed on as bounds.

The target in this assay is Avi-humanTEAD4 217-434 / Cy5 labeled humanYAP 60-100 (Homo sapiens (Human), UniProt Q15561). The assay is described as follows: TR-FRET YAP-TEAD4 in-vitro biochemical assay. The note with it: 1 nM Avi-humanTEAD4 217-434, 20 nM Cy5-humanYAP 60-100, 1 h room temperature. It counts as binding. A general note: Time-resolved FRET reads energy transfer from a long-lived donor to a nearby acceptor.
Chain of Avi-humanTEAD4 217-434 / Cy5 labeled humanYAP 60-100 (Q15561 217-434): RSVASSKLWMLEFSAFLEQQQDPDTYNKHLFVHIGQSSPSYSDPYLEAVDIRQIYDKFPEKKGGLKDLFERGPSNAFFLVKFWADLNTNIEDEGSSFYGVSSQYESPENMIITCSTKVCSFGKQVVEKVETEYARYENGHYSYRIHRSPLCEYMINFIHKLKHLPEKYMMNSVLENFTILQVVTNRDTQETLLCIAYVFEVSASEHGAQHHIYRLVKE
The term pIC50 denotes −log10 of the IC50, conventionally taken in molar units. Higher therefore signals a low IC50. Take `NC[C@]1(c2ccccc2)Cc2c(ccc(Cl)c2-c2c(F)cccc2C(N)=O)O1` (stereo in doubt) [Example 4b, 2-((2S*,4R*)-2-(aminomethyl)-5-chloro-2-phenyl-2,3-dihydrobenzofuran-4-yl)-3-fluorobenzamide]: the negative-log IC50 (pIC50) was less than 4.00.

Regarding `NC(=O)c1ccc(OC(F)F)c(F)c1-c1c(Cl)c(F)cc2c1C[C@@](CNC1CC3(CC(O)C3)C1)(c1ccccc1)O2` (stereo partly drawn) [Example 85a, 2-((2S,4S)-5-Chloro-6-fluoro-2-(((6-hydroxyspiro[3.3]heptan-2-yl)amino)methyl)-2-phenyl-2,3-dihydrobenzofuran-4-yl)-4-(difluoromethoxy)-3-fluorobenzamide], the negative logarithm of the IC50 (pIC50) was 8.40.

As for `C[C@]1(NC[C@@]2(c3ccccc3)Cc3c(cc(F)c(Cl)c3-c3c(C(N)=O)ccc(OC(F)F)c3F)O2)CC[C@H](O)CC1` (atropisomer, axis not shown) [Example 84, 2-((2S,4S)-5-chloro-6-fluoro-2-((((trans)-4-hydroxy-1-methylcyclohexyl)amino)methyl)-2-phenyl-2,3-dihydrobenzofuran-4-yl)-4-(difluoromethoxy)-3-fluorobenzamide], the pIC50 was 7.39. Take `NC[C@@]1(c2ccccc2)Cc2c(ccc(Cl)c2-c2c(C(N)=O)ccc(OCC(=O)O)c2F)O1` (atropisomer, axis not shown) [Example 16, 2-(3-((2S,4S)-2-(aminomethyl)-5-chloro-2-phenyl-2,3-dihydrobenzofuran-4-yl)-4-carbamoyl-2-fluorophenoxy)acetic acid trifluoroacetate salt]: the pIC50 was 8.22. The result for `NC(=O)c1ccc(OC(F)F)c(F)c1-c1c(Cl)c(F)cc2c1C[C@@](CNC1CCC3(CCC(=O)N3)CC1)(c1ccccc1)O2` (single isomer, unassigned) [Example 59b] reads 8.30; that for `CC(=O)N1CCO[C@@H](COc2ccc(C(N)=O)c(-c3c(Cl)ccc4c3C[C@@](CN)(c3ccccc3)O4)c2F)C1` (atropisomer, axis not shown) [Example 17, 4-(((R)-4-acetylmorpholin-2-yl)methoxy)-2-((2S,4S)-2-(aminomethyl)-5-chloro-2-phenyl-2,3-dihydrobenzofuran-4-yl)-3-fluorobenzamide], 7.89; that for `NCCOc1cccc(F)c1-c1c(Cl)ccc2c1C[C@@](CN)(c1ccccc1)O2` [Example 3a, 2-(2-((2S,4S)-2-(Aminomethyl)-5-chloro-2-phenyl-2,3-dihydrobenzofuran-4-yl)-3-fluorophenoxy)ethanamine], 7.80. For `NC[C@]1(c2ccccc2)Oc2cc(F)c(Cl)c(-c3c(C(N)=O)ccc(OCCO)c3F)c2[C@@H]1O` (atropisomer, axis not shown) [Example 98, 2-((2S,3S,4S)-2-(Aminomethyl)-5-chloro-6-fluoro-3-hydroxy-2-phenyl-2,3-dihydrobenzofuran-4-yl)-3-fluoro-4-(2-hydroxyethoxy)benzamide], the negative logarithm of the IC50 (pIC50) is 8.30. For the compound `CNC(=O)c1cnc(OCC(=O)O)c(F)c1-c1c(Cl)c(F)cc2c1C[C@](c1ccccc1)([C@@H]1CCCN1)O2` [Example 156, 2-((4-((2S,4S)-5-Chloro-6-fluoro-2-phenyl-2-((S)-pyrrolidin-2-yl)-2,3-dihydrobenzofuran-4-yl)-3-fluoro-5-(methylcarbamoyl)pyridin-2-yl)oxy)acetic acid], the pIC50 was 7.96. The result for `CNC[C@]1(c2ccccn2)Oc2cc(F)c(Cl)c(-c3c(C(N)=O)ccc(OCCOC)c3F)c2[C@@H]1C` (atropisomer, axis not shown) [Example 111, 2-((2R,3S,4S)-5-chloro-6-fluoro-3-methyl-2-((methylamino)methyl)-2-(pyridin-2-yl)-2,3-dihydrobenzofuran-4-yl)-3-fluoro-4-(2-methoxyethoxy)benzamide] reads 8.40.

(Values after patent US12083101B2, “Biaryl derivatives as YAP/TAZ-TEAD protein-protein interaction inhibitors” (Novartis AG, priority 2020, dated 2024).)
